# Measured values taken from PubChem BioAssay (NCI).
#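 48-hour exposure; five concentrations; linearly interpolated endpoints. GI50: concentration for 50% inhibition of growth. The concentration for full growth arrest is given as TGI.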
# Key:
# Assay in all cases: NCI tumour cell line growth inhibition, 48 h
# 786-0 renal = test system: 786-0 renal
# A498 renal = test system: A498 renal
# A549 NSCLC = test system: A549 NSCLC
# ACHN renal = test system: ACHN renal
# BT-549 breast = test system: BT-549 breast
# CAKI-1 renal = test system: CAKI-1 renal
# CCRF-CEM leukemia = test system: CCRF-CEM leukemia
# COLO 205 colon = test system: COLO 205 colon
# DU-145 prostate = test system: DU-145 prostate
# EKVX NSCLC = test system: EKVX NSCLC
# HCC-2998 colon = test system: HCC-2998 colon
# HCT-116 colon = test system: HCT-116 colon
# HCT-15 colon = test system: HCT-15 colon
# HOP-62 NSCLC = test system: HOP-62 NSCLC
# HOP-92 NSCLC = test system: HOP-92 NSCLC
# HS 578T breast = test system: HS 578T breast
# IGROV1 ovarian = test system: IGROV1 ovarian
# KM12 colon = test system: KM12 colon
# LOX IMVI melanoma = test system: LOX IMVI melanoma
# M14 melanoma = test system: M14 melanoma
# MALME-3M melanoma = test system: MALME-3M melanoma
# MCF7 breast = test system: MCF7 breast
# MDA-MB-231 breast = test system: MDA-MB-231 breast
# MDA-MB-435 = test system: MDA-MB-435
# NCI-H226 lung = test system: NCI-H226 lung
# NCI-H460 lung = test system: NCI-H460 lung
# NCI-H522 lung = test system: NCI-H522 lung
# NCI/ADR-RES ovarian = test system: NCI/ADR-RES ovarian
# OVCAR-3 ovarian = test system: OVCAR-3 ovarian
# OVCAR-4 ovarian = test system: OVCAR-4 ovarian
# OVCAR-5 ovarian = test system: OVCAR-5 ovarian
# OVCAR-8 ovarian = test system: OVCAR-8 ovarian
# PC-3 prostate = test system: PC-3 prostate
# RPMI-8226 leukemia = test system: RPMI-8226 leukemia
# RXF 393 renal = test system: RXF 393 renal
# SF-268 CNS = test system: SF-268 CNS
# SF-295 CNS = test system: SF-295 CNS
# SF-539 CNS = test system: SF-539 CNS
# SK-MEL-2 melanoma = test system: SK-MEL-2 melanoma
# SK-MEL-28 melanoma = test system: SK-MEL-28 melanoma
# SK-MEL-5 melanoma = test system: SK-MEL-5 melanoma
# SK-OV-3 ovarian = test system: SK-OV-3 ovarian
# SN12C renal = test system: SN12C renal
# SNB-19 CNS = test system: SNB-19 CNS
# SNB-75 CNS = test system: SNB-75 CNS
# SW-620 colon = test system: SW-620 colon
# T-47D breast = test system: T-47D breast
# TK-10 renal = test system: TK-10 renal
# U251 CNS = test system: U251 CNS
# UACC-257 melanoma = test system: UACC-257 melanoma
# UACC-62 melanoma = test system: UACC-62 melanoma
# UO-31 renal = test system: UO-31 renal
structure (smiles),measurement,setting,value
CCN1CCN(S(=O)(=O)c2oc(-c3ccc(Cl)cc3)nc2C#N)CC1,GI50,786-0 renal,2.78 µM
same,TGI,786-0 renal,8.19 µM
same,GI50,A498 renal,29.4 µM
same,TGI,A498 renal,82.4 µM
same,GI50,A549 NSCLC,17.8 µM
same,TGI,A549 NSCLC,35.1 µM
same,GI50,ACHN renal,1.91 µM
same,TGI,ACHN renal,3.42 µM
same,GI50,BT-549 breast,4.87 µM
same,TGI,BT-549 breast,18.5 µM
same,GI50,CAKI-1 renal,1.38 µM
same,TGI,CAKI-1 renal,2.74 µM
same,GI50,CCRF-CEM leukemia,1 µM
same,TGI,CCRF-CEM leukemia,8.75 µM
same,GI50,COLO 205 colon,2.07 µM
same,TGI,COLO 205 colon,3.76 µM
same,GI50,DU-145 prostate,7.58 µM
same,TGI,DU-145 prostate,21 µM
same,GI50,EKVX NSCLC,16 µM
same,TGI,EKVX NSCLC,29.8 µM
same,GI50,HCC-2998 colon,15.8 µM
same,TGI,HCC-2998 colon,31.4 µM
same,GI50,HCT-116 colon,2.12 µM
same,TGI,HCT-116 colon,6.98 µM
same,GI50,HCT-15 colon,1.76 µM
same,TGI,HCT-15 colon,3.92 µM
same,GI50,HOP-62 NSCLC,17.2 µM
same,TGI,HOP-62 NSCLC,33.6 µM
same,GI50,HOP-92 NSCLC,2.75 µM
same,TGI,HOP-92 NSCLC,10.1 µM
same,GI50,HS 578T breast,20.9 µM
same,TGI,HS 578T breast,69.4 µM
same,GI50,IGROV1 ovarian,15.8 µM
same,TGI,IGROV1 ovarian,37 µM
same,GI50,KM12 colon,15.7 µM
same,TGI,KM12 colon,42.8 µM
same,GI50,LOX IMVI melanoma,1.13 µM
same,TGI,LOX IMVI melanoma,2.54 µM
same,GI50,M14 melanoma,3.5 µM
same,TGI,M14 melanoma,15.7 µM
same,GI50,MALME-3M melanoma,2.07 µM
same,TGI,MALME-3M melanoma,4.12 µM
same,GI50,MCF7 breast,2.3 µM
same,TGI,MCF7 breast,10.4 µM
same,GI50,MDA-MB-231 breast,14.5 µM
same,TGI,MDA-MB-231 breast,29.1 µM
same,GI50,MDA-MB-435,4.47 µM
same,TGI,MDA-MB-435,16.3 µM
same,GI50,NCI-H226 lung,2.46 µM
same,TGI,NCI-H226 lung,7.01 µM
same,GI50,NCI-H460 lung,15.8 µM
same,TGI,NCI-H460 lung,39.9 µM
same,GI50,NCI-H522 lung,1.48 µM
same,TGI,NCI-H522 lung,3.06 µM
same,GI50,NCI/ADR-RES ovarian,18.7 µM
same,TGI,NCI/ADR-RES ovarian,62.7 µM
same,GI50,OVCAR-3 ovarian,1.95 µM
same,TGI,OVCAR-3 ovarian,3.74 µM
same,GI50,OVCAR-4 ovarian,4.04 µM
same,TGI,OVCAR-4 ovarian,23.4 µM
same,GI50,OVCAR-5 ovarian,14.5 µM
same,TGI,OVCAR-5 ovarian,29.4 µM
same,GI50,OVCAR-8 ovarian,12.9 µM
same,TGI,OVCAR-8 ovarian,27.2 µM
same,GI50,PC-3 prostate,13.3 µM
same,TGI,PC-3 prostate,26.9 µM
same,GI50,RPMI-8226 leukemia,3.26 µM
same,TGI,RPMI-8226 leukemia,13.5 µM
same,GI50,RXF 393 renal,1.89 µM
same,TGI,RXF 393 renal,3.5 µM
same,GI50,SF-268 CNS,11.8 µM
same,TGI,SF-268 CNS,41.3 µM
same,GI50,SF-295 CNS,17.3 µM
same,TGI,SF-295 CNS,31.8 µM
same,GI50,SF-539 CNS,6.47 µM
same,TGI,SF-539 CNS,19.8 µM
same,GI50,SK-MEL-2 melanoma,14.5 µM
same,TGI,SK-MEL-2 melanoma,28.3 µM
same,GI50,SK-MEL-28 melanoma,3.6 µM
same,TGI,SK-MEL-28 melanoma,12.3 µM
same,GI50,SK-MEL-5 melanoma,15.9 µM
same,TGI,SK-MEL-5 melanoma,29.6 µM
same,GI50,SK-OV-3 ovarian,18.7 µM
same,TGI,SK-OV-3 ovarian,36.9 µM
same,GI50,SN12C renal,11.4 µM
same,TGI,SN12C renal,24.5 µM
same,GI50,SNB-19 CNS,15.7 µM
same,TGI,SNB-19 CNS,29.3 µM
same,GI50,SNB-75 CNS,14.1 µM
same,TGI,SNB-75 CNS,27.4 µM
same,GI50,SW-620 colon,1.69 µM
same,TGI,SW-620 colon,4.17 µM
same,GI50,T-47D breast,2.24 µM
same,TGI,T-47D breast,6.24 µM
same,GI50,TK-10 renal,12.8 µM
same,TGI,TK-10 renal,25.8 µM
same,GI50,U251 CNS,14.9 µM
same,TGI,U251 CNS,30.9 µM
same,GI50,UACC-257 melanoma,10.8 µM
same,TGI,UACC-257 melanoma,23.1 µM
same,GI50,UACC-62 melanoma,11.2 µM
same,TGI,UACC-62 melanoma,24.2 µM
same,GI50,UO-31 renal,4.1 µM
same,TGI,UO-31 renal,15.9 µM
